27 molecules from PubChem BioAssay AID330 (DTP/NCI, 2004) can be followed below.

The test concerns P388 leukemia ip, CD2F1 mice, survival T/C. Put plainly: NCI In Vivo Anticancer Drug Screen. Data for tumor model P388 Leukemia (intraperitoneal) in CD2F1 (CDF1) mice. To be noted: endpoint: median survival time, higher = longer survival. Summed up: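 Mice carrying the transplanted tumor received test compound or vehicle. Survival was recorded in each group, and the value is the treated-group measurement divided by that of the vehicle-treated control group.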

Setting [1] is: dose: 60.0 mg/kg/injection, schedule: Q01DX005 (ip), vehicle: Klucel (hydroxypropylcellulose) (HPC).
Setting [2] is: dose: 120.0 mg/kg/injection, schedule: Q01DX005 (ip), vehicle: Klucel (hydroxypropylcellulose) (HPC).
Where [3] appears, read: dose: 60.0 mg/kg/injection, schedule: Q01DX005 (ip), vehicle: saline with Tween-80.
Setting [4] is: dose: 120.0 mg/kg/injection, schedule: Q01DX005 (ip), vehicle: saline with Tween-80.
[5] abbreviates: dose: 240.0 mg/kg/injection, schedule: Q01DX005 (ip), vehicle: saline with Tween-80.
Setting [6] is: dose: 50.0 mg/kg/injection, schedule: Q01DX005 (ip), vehicle: saline with Tween-80.
[7] abbreviates: dose: 100.0 mg/kg/injection, schedule: Q01DX005 (ip), vehicle: saline with Tween-80.
Where [8] appears, read: dose: 200.0 mg/kg/injection, schedule: Q01DX005 (ip), vehicle: saline with Tween-80.
The mark [9] stands for this setting: dose: 50.0 mg/kg/injection, schedule: Q01DX009 (ip), vehicle: saline with Tween-80.
Setting [10] is: dose: 100.0 mg/kg/injection, schedule: Q01DX009 (ip), vehicle: saline with Tween-80.
Setting [11] is: dose: 200.0 mg/kg/injection, schedule: Q01DX009 (ip), vehicle: saline with Tween-80.
Setting [12] is: dose: 50.0 mg/kg/injection, schedule: Q01DX005 (ip), vehicle: Klucel (hydroxypropylcellulose) (HPC).
The mark [13] stands for this setting: dose: 100.0 mg/kg/injection, schedule: Q01DX005 (ip), vehicle: Klucel (hydroxypropylcellulose) (HPC).
Setting [14] is: dose: 200.0 mg/kg/injection, schedule: Q01DX005 (ip), vehicle: Klucel (hydroxypropylcellulose) (HPC).
Setting [15] is: dose: 25.0 mg/kg/injection, schedule: Q01DX005 (ip), vehicle: Klucel (hydroxypropylcellulose) (HPC).

SMILES strings stand for the structures. Where “and” joins values, the source holds several entries; their conditions need not be identical. Equal values may be shown once. Toxic doses and inconclusive results are not listed.

As for `NC(CSCc1ccccc1)P(=O)(O)O` (stereo not given), the T/C is 105 % of control under setting [1]; 98 % of control under setting [2]; 91 % of control (dose: 240.0 mg/kg/injection, schedule: Q01DX005 (ip), vehicle: Klucel (hydroxypropylcellulose) (HPC)).

With `CCc1cc(-c2cc(CC)nc(N)n2)nc(N)n1`, the T/C is, setting by setting: (dose: 60.0 mg/kg/injection, schedule: Q01DX005 (ip), vehicle: saline) 97 % of control; (dose: 120.0 mg/kg/injection, schedule: Q01DX005 (ip), vehicle: saline) 104 % of control; (dose: 240.0 mg/kg/injection, schedule: Q01DX005 (ip), vehicle: saline) 100 % of control.

With `O=C1CCC(N2C(=O)C3C4CCC(O4)C3C2=O)C(=O)N1` (stereo not given), the T/C is, setting by setting: under setting [3], 101 % of control; under setting [4], 94 % of control; under setting [5], 100 % of control.

In the case of `NC(=O)NNC(=O)NNC(N)=O`, the T/C (dose: 100.0 mg/kg/injection, schedule: Q04DX003 (ip), vehicle: saline) was 98 % of control; the T/C (dose: 200.0 mg/kg/injection, schedule: Q04DX003 (ip), vehicle: saline) was 96 % of control; the T/C (dose: 400.0 mg/kg/injection, schedule: Q04DX003 (ip), vehicle: saline) is 106 % of control.

`Clc1ccccc1/C=C/c1ccnnc1`: the T/C was 96 % of control (dose: 25.0 mg/kg/injection, schedule: Q01DX001 (ip), vehicle: saline); 95 % of control (dose: 50.0 mg/kg/injection, schedule: Q01DX001 (ip), vehicle: saline); 95 % of control (dose: 100.0 mg/kg/injection, schedule: Q01DX001 (ip), vehicle: saline); 101 % of control (dose: 100.0 mg/kg/injection, schedule: Q01DX001 (ip), vehicle: suspension in saline); 97 % of control (dose: 200.0 mg/kg/injection, schedule: Q01DX001 (ip), vehicle: suspension in saline); 97 % of control (dose: 400.0 mg/kg/injection, schedule: Q01DX001 (ip), vehicle: suspension in saline).

`Cc1ccc(SCC(=O)NCc2cccs2)cc1`: the T/C was 103 % of control under setting [6], 97 % of control under setting [7] and 93 % of control under setting [8].

In the case of `C[n+]1c(-c2cccc(-c3ccccc3)c2)c2cc(N)ccc2c2ccccc21`, the T/C (dose: 1.56 mg/kg/injection, schedule: Q01DX009 (ip), vehicle: other) was 124 % of control.

Consider `CCS(=O)(=O)C(=O)N1CCN(C(=O)S(=O)(=O)CC)CC1`, for which the T/C reads like this: (dose: 50.0 mg/kg/injection, schedule: Q01DX009 (ip), vehicle: Klucel (hydroxypropylcellulose) (HPC)) 98 % of control; (dose: 100.0 mg/kg/injection, schedule: Q01DX009 (ip), vehicle: Klucel (hydroxypropylcellulose) (HPC)) 100 % of control; (dose: 200.0 mg/kg/injection, schedule: Q01DX009 (ip), vehicle: Klucel (hydroxypropylcellulose) (HPC)) 106 % of control.

`Cc1cc2c(c3ncccc13)OCN(Cc1ccc(Cl)cc1)C2`: the T/C runs as follows: under setting [9], 94 % of control; under setting [10], 95 % of control; under setting [11], 94 % of control.

As for `CSC1=NCc2c(sc3c2CCCC3)N1`, the T/C by setting is: under setting [12], 100 % of control; under setting [13], 106 % of control; under setting [14], 98 % of control.

For the molecule `N#CCCC1(CCC#N)CCCC(CCC#N)(CCC#N)C1=O`, the T/C reads like this: under setting [9], 95 % of control; under setting [10], 99 % of control; under setting [11], 87 % of control; (dose: 400.0 mg/kg/injection, schedule: Q01DX009 (ip), vehicle: saline with Tween-80) 92 % of control.

`CNc1ncnc2[nH]ncc12`: the T/C is, setting by setting: under setting [9], 100 % of control; (dose: 200.0 mg/kg/injection, schedule: Q04DX003 (ip), vehicle: saline sonified) 109 % of control.

Consider `CC(C)=C(C)OS(=O)(=O)C(F)(F)F`, for which the T/C was 102 % of control (dose: 50.0 mg/kg/injection, schedule: Q01DX009 (ip), vehicle: olive oil, sesame oil, peanut oil); 114 % of control (dose: 100.0 mg/kg/injection, schedule: Q01DX009 (ip), vehicle: olive oil, sesame oil, peanut oil); 96 % of control (dose: 200.0 mg/kg/injection, schedule: Q01DX009 (ip), vehicle: olive oil, sesame oil, peanut oil).

In the case of `c1ccc2c(c1)nc1n2CC2(CS1)CSc1nc3ccccc3n1C2`, the T/C runs as follows: under setting [9], 88 % of control; under setting [10], 91 % of control.

For `O=C(CSCc1c(F)cccc1Cl)Nc1ccc(F)c(Cl)c1`, the T/C reads like this: under setting [3], 97 % of control; under setting [4], 91 % of control; under setting [5], 91 % of control.

For the molecule `O=C1OC(c2ccccc2)=N/C1=C/c1c(-c2ccccc2)c(-c2ccccc2)c2n1CCC2`, the T/C runs as follows: under setting [12], 86 % of control; under setting [13], 86 % of control; under setting [14], 86 % of control.

On to `Cn1nc(-c2cccc(F)c2)[n+](C)n1`, for which the T/C by setting is: (dose: 50.0 mg/kg/injection, schedule: Q01DX005 (ip), vehicle: saline) 102 % of control; (dose: 100.0 mg/kg/injection, schedule: Q01DX005 (ip), vehicle: saline) 98 % of control.

With `N=C1C=CC2C(=Nc3ccccc3[N+]2=O)N1Cc1ccncc1` (stereo not given), the T/C is, setting by setting: under setting [3], 98 % of control; under setting [4], 90 % of control; under setting [5], 98 % of control.

Turning to `COc1c2c(c(OC)c3c1C(=O)C(=O)C=C3O)OCO2`, the T/C is 104 % of control under setting [1] and 113 % of control under setting [2].

For the molecule `COc1cc2c(cc1C(C)c1ccc(OCc3ccccc3)cc1)OCO2` (stereo not given), the T/C runs as follows: (dose: 25.0 mg/kg/injection, schedule: Q01DX005 (ip), vehicle: distilled water + Tween-80) 99 % of control; (dose: 50.0 mg/kg/injection, schedule: Q01DX005 (ip), vehicle: distilled water + Tween-80) 98 % of control; (dose: 100.0 mg/kg/injection, schedule: Q01DX005 (ip), vehicle: distilled water + Tween-80) 90 % of control and 94 % of control; (dose: 200.0 mg/kg/injection, schedule: Q01DX005 (ip), vehicle: distilled water + Tween-80) 90 % of control and 91 % of control.

As to `O=c1oc(-c2cc([N+](=O)[O-])ccc2Cl)nc2ccccc12`, the T/C runs as follows: (dose: 33.0 mg/kg/injection, schedule: Q04DX003 (ip), vehicle: saline with Tween-80) 100 % of control; (dose: 50.0 mg/kg/injection, schedule: Q04DX003 (ip), vehicle: saline with Tween-80) 100 % of control; (dose: 75.0 mg/kg/injection, schedule: Q04DX003 (ip), vehicle: saline with Tween-80) 99 % of control.

Take `O=C1CCN2CO[C@H](c3ccccc3)C[C@@H]2C1`: the T/C is, setting by setting: (dose: 12.5 mg/kg/injection, schedule: Q01DX005 (ip), vehicle: Klucel (hydroxypropylcellulose) (HPC)) 103 % of control; under setting [15], 102 % of control; under setting [12], 102 % of control.

In the case of `COC(=O)c1ccccc1N=NNc1ccccc1C#N`, the T/C reads like this: (dose: 100.0 mg/kg/injection, schedule: Q01DX001 (ip), vehicle: Klucel (hydroxypropylcellulose) (HPC)) 109 % of control; (dose: 200.0 mg/kg/injection, schedule: Q01DX001 (ip), vehicle: Klucel (hydroxypropylcellulose) (HPC)) 103 % of control; (dose: 400.0 mg/kg/injection, schedule: Q01DX001 (ip), vehicle: Klucel (hydroxypropylcellulose) (HPC)) 94 % of control.

As for `OCCNc1ncnc2cc(Cl)ccc12`, the T/C runs as follows: under setting [15], 98 % of control; under setting [12], 95 % of control; under setting [13], 105 % of control; under setting [14], 98 % of control.

For `O=c1/c(=C/C=C/c2ccccc2)sc2nc3ccccc3n12`, the T/C was 107 % of control under setting [6], 106 % of control under setting [7] and 92 % of control under setting [8].

As to `NC(=S)N/N=C1/C(=O)N(c2ccccc2)C(=O)C1C(=O)Nc1ccccc1` (stereo not given), the T/C reads like this: (dose: 100.0 mg/kg/injection, schedule: Q01DX001 (ip), vehicle: saline with Tween-80) 100 % of control; (dose: 200.0 mg/kg/injection, schedule: Q01DX001 (ip), vehicle: saline with Tween-80) 106 % of control; (dose: 400.0 mg/kg/injection, schedule: Q01DX001 (ip), vehicle: saline with Tween-80) 98 % of control.

On to `CC(c1ccccc1)C1CCN(C)CC1` (stereo not given), for which the T/C reads like this: (dose: 12.5 mg/kg/injection, schedule: Q04DX002 (ip), vehicle: saline) 99 % of control; (dose: 25.0 mg/kg/injection, schedule: Q04DX002 (ip), vehicle: saline) 100 % of control.
